Test results: patent US20230087609A1, “USE OF A SOLUBLE GUANYLATE CYCLASE (sGC) STIMULATOR OR OF A COMBINATION OF A sGC STIMULATOR AND AN sGC ACTIVATOR FOR CONDITIONS WHEREIN THE HEME GROUP OF sGC IS OXIDIZED OR WHEREIN sGC IS DEFICIENT IN HEME” (Universiteit Maastricht, priority 2020, published 2023)

Target: T1, human apo-sGC (sGCα1 / mutant sGCβ1H105F) (Homo sapiens, UniProt Q02153, H105F)
T1 construct: His tag; made in house; host or cells: Sf9 cells infected with recombinant baculoviruses (provided by E. Martin); sonicated lysate, supernatant used unpurified
T1 sequence (Q02153 1-619 H105F): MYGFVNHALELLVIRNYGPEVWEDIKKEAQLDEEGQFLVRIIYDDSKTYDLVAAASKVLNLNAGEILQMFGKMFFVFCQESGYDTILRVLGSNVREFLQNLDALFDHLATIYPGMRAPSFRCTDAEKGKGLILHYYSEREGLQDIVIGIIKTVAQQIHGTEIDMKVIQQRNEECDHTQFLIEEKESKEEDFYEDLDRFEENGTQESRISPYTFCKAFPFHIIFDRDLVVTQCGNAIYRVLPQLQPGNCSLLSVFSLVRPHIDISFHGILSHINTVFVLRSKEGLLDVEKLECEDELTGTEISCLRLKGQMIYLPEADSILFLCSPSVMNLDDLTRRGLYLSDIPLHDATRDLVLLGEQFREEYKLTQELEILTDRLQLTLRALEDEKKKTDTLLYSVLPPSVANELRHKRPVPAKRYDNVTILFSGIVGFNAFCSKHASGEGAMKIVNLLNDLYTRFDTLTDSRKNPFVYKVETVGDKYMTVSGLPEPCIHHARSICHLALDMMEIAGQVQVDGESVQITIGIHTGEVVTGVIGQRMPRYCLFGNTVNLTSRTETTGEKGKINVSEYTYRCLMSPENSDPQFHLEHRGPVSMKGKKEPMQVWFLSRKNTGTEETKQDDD
T1 sequence (Q02108 1-690 partner): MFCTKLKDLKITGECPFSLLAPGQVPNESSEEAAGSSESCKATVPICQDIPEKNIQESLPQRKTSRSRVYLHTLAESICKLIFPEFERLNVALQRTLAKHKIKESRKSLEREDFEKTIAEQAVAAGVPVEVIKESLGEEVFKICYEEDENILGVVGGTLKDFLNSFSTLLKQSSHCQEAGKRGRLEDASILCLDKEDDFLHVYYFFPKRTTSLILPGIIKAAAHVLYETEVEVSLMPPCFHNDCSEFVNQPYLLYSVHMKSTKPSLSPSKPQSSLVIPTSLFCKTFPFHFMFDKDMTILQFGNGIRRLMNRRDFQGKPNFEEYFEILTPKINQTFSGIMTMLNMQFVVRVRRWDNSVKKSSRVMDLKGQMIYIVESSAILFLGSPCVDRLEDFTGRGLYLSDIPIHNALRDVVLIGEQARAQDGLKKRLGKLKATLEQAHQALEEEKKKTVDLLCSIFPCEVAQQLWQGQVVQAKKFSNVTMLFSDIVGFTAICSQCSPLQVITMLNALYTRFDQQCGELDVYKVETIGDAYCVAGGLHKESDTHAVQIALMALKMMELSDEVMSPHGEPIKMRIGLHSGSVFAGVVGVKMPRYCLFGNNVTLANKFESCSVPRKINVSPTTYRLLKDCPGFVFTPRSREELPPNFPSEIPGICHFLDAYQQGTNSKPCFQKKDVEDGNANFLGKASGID
Experiment: sGC activity of human apo-sGC expressed in SF-9 cells
Format: biochemical
Protocol: To measure sGC activity, cells were stimulated with 250 μM DEA/NO or 10 μM BAY58-2667 for 3 min at 37° C. Thereafter, cells were immediately lysed in 80% ethanol. Cells were scraped and, after evaporation of ethanol, re-suspended in assay buffer and sonicated. Measurement of sGC activity in crude homogenates of mouse tissue was performed as previously described (Nedvetsky et al., Brain Res. 2002; 950(1-2):148-154. doi: 10.1016/50006-8993(02)03015-9).[9] Briefly, all samples were measured as the formation of cGMP at 37° C. during 10 min in a total incubation volume of […] containing 50 mM triethanolamine-HCl (pH 7.4), 3 mM MgCl2, 3 mM glutathione (Carl Roth, Karlsruhe, Germany), 1 mM IBMX, […], 5 mM creatine phosphate, 0.25 mg/ml creatine kinase and 1 mM or 0.5 mM GTP. After adding sGC activator in the absence or presence of the sGC stimulator the reaction was started by application of GTP solution. […] Thereafter the amount of cGMP was subsequently determined by a commercial enzyme immunoassay kit (Enzo Life Sciences, Lorrach, Germany or Biotrend, Cologne, Germany). […]
Recombinant baculoviruses containing the cDNAs for the sGCa1 subunit with a His tag and mutant sGCβ31H105F with a His tag of human sGC were provided by E. Martin (Houston, Tex., USA). […] Protein concentrations were determined by the RC DC protein assay kit (Bio-Rad, Cat. no. 5000122).

sGC activity / cGMP formation in presence of ODQ (10 μM BAY 41-2272 + 10 μM ODQ (FIG. 8)): improves the formation of cGMP
Compound: Nc1nc(-c2nn(Cc3ccccc3F)c3ncccc23)ncc1C1CC1 [BAY 41-2272, 5-cyclopropyl-2-[1-(2-fluoro-benzyl)-1H-pyrazolo[3,4-b]pyridin-3-yl]-pyrimidin-4-ylamine]
sGC activity / cGMP production (10 μM BAY 41-2272 alone (FIG. 8)): activated and cGMP is (increasingly) produced
